Source: ChEMBL document CHEMBL1139267, “Discovery of a potent, selective and orally bioavailable 3,9-diazaspiro[5.5]undeca-2-one CCR5 antagonist” (Bioorg Med Chem Lett, 2009)

What was measured:
[1] = Metabolic stability in human liver microsomes assessed as clearance; type: ADME, Microsome
[2] = test system: Human immunodeficiency virus 1; experiment: Antiviral activity against R5 tropic HIV1 BaL infected in human JC53-BL cells expressing CCR5 after 2 days by cell-cell fusion assay; type: functional, organism-based; details: Human immunodeficiency virus 1, BaL, JC53BL, 48 h
[3] = biological target: C-C chemokine receptor type 5 (Homo sapiens, UniProt P51681); experiment: Antagonist activity at CCR5 receptor by radiolabeled RANTES binding assay
Sequence of C-C chemokine receptor type 5 (P51681 whole entry): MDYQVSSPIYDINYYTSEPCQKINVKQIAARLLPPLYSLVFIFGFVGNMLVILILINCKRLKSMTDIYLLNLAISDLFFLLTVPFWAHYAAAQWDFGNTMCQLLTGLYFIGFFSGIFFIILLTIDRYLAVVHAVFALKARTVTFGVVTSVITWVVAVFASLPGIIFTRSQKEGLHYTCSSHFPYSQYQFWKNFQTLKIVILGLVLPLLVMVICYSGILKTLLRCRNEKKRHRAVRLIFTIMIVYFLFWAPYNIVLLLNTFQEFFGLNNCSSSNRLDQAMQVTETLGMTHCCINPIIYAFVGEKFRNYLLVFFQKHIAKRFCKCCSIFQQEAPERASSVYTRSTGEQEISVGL

[4] = test system: Human immunodeficiency virus 1; experiment: Inhibition of R5 tropic HIV1 BaL replication in human PBMC; type: functional, organism-based; details: Human immunodeficiency virus 1, BaL

Compound | microsomal CLint [1] [µL/min/mg] | IC50 [2] [nM] | IC50 [3] [nM] | IC50 [4] [nM] | IC90 [4] [nM]
CCCCC1CN(S(=O)(=O)N2CCOCC2)CCC12CCN(C1(C)CCN(C(=O)c3c(C)ncnc3C)CC1)CC2 (centres undefined) | 276 | 1 | 11 | – | –
CCCCC1CN(S(=O)(=O)c2ccccn2)CCC12CCN(C1(C)CCN(C(=O)c3c(C)ncnc3C)CC1)CC2 (centres undefined) | 310 | 4 | 18 | – | –
CCCCC1C(=O)N(C[C@H]2CC[C@H](O)CC2)CCC12CCN(C1(C)CCN(C(=O)c3c(C)ncnc3C)CC1)CC2 (some centres undefined) | – | 10 | 76 | – | –
CCCC[C@H]1CN(S(=O)(=O)CC(F)(F)F)CCC12CCN(C1(C)CCN(C(=O)c3c(C)ncnc3C)CC1)CC2 | 53 | 3 | 19 | – | –
CCCCC1CN(S(=O)(=O)C2CCOCC2)CCC12CCN(C1(C)CCN(C(=O)c3c(C)ncnc3C)CC1)CC2 (centres undefined) | 280 | 6 | 22 | – | –
CCCCC1CN(C(=O)C2CCOCC2)CCC12CCN(C1(C)CCN(C(=O)c3c(C)ncnc3C)CC1)CC2 (centres undefined) | – | > 5000 | > 500 | – | –
CCCCC1C(=O)N(C[C@H]2CC[C@H](OC)CC2)CCC12CCN(C1(C)CCN(C(=O)c3c(C)ncnc3C)CC1)CC2 (some centres undefined) | – | 6 | 37 | – | –
CCCC[C@H]1C(=O)N(C[C@H]2CC[C@H](OCC)CC2)CCC12CCN(C1(C)CCN(C(=O)c3c(C)ncnc3C)CC1)CC2 | – | – | – | 0.8 | 4
CCCCC1CN(C(=O)C2CCOCC2)CCC12CCN(C1(C)CCN(C(=O)c3c(C)cc(C#N)nc3C)CC1)CC2 (centres undefined) | – | 170 | 217 | – | –
CCCCC1C(=O)N(CC2CCN(CC(F)F)CC2)CCC12CCN(C1(C)CCN(C(=O)c3c(C)ncnc3C)CC1)CC2 (centres undefined) | – | 26 | 70 | – | –
CCCCC1C(=O)N(Cc2ccc(F)cc2)CCC12CCN(C1(C)CCN(C(=O)c3c(C)ncnc3C)CC1)CC2 (centres undefined) | – | 100 | 19 | – | –
CCCCC1CN(CC2CCOCC2)CCC12CCN(C1(C)CCN(C(=O)c3c(C)ncnc3C)CC1)CC2 (centres undefined) | – | > 5000 | > 500 | – | –
CCCCC1CN(S(=O)(=O)c2ccccc2)CCC12CCN(C1(C)CCN(C(=O)c3c(C)ncnc3C)CC1)CC2 (centres undefined) | 773 | < 1 | 19 | – | –
CCCCC1CN(S(=O)(=O)C2CCN(C=O)CC2)CCC12CCN(C1(C)CCN(C(=O)c3c(C)ncnc3C)CC1)CC2 (centres undefined) | 60 | 14 | 64 | – | –
